In patent publication US9220771B2, “Peptide for use in the treatment of breast cancer and/or bone metastases” (MERCK PATENT GMBH, priority 2010, dated 2015):
One block for each molecule: values may come before it.

How the values were obtained:
[1] = system: MDA-MB-231 breast cancer bone metastases; experiment: Experimental breast cancer bone metastases in nude rats: volumes of osteolytic lesions and soft tissue components by VCT and MRI; type: in vivo, nude rats (RNU strain); details: for mean relative volume of soft tissue components (STC), increase compared to initial value at day 30 / mean relative volume of osteolytic lesions (OL), increase compared to initial value at day 30: cilengitide 75 mg/kg i.p. five times per week from day 30; for mean relative volume of soft tissue components (STC), increase compared to initial value at day 30: MRI
Procedure: For this purpose, nude rats bearing established breast cancer bone metastases are treated with cilengitide, a small molecule inhibitor of αvβ3 and αvβ5 integrins (75 mg/kg, five days per week; n=12 rats) and compared to vehicle treated control rats (n=12). In a longitudinal study, conventional magnetic resonance imaging (MRI) and flat panel volumetric computed tomography (VCT) are used to assess the volume of the soft tissue tumor and osteolysis, respectively, and dynamic contrastenhanced (DCE-) MRI is performed to determine functional parameters of the tumor vasculature reflecting blood volume and blood vessel permeability.
Nude rats (RNU strain) are obtained from Harlan-Winkelmann GmbH (Borchen, Germany) at the age of six weeks and housed in a specific pathogen-free environment in a mini barrier system of the central animal facility. Animals are kept under controlled conditions (21±2° C. room temperature, 60% humidity, 12 h light-dark rhythm) and offered autoclaved food and water ad libitum. Sub-confluent MDAMB- 231 cells are harvested using 0.05% Trypsin-EDTA (Gibco®; Invitrogen, Karlsruhe, Germany) counted on a Neubauer's chamber and resuspended in RPMI-1640 to a final concentration of 10^5 cells in 200 μl. Rats are anesthetized using a mixture of nitrous oxide (1 l/min), oxygen (0.5 l/min) and isoflurane (1.5 vol. %). Arterial branches of the right hind leg are dissected and 10^5 cells injected into the superficial epigastric artery as described previously.^28 Bone metastases established and are observed exclusively in the femur, tibia and fibula of the right hind leg. 30 days after cancer cell transplantation, rats (n=24) are randomly divided into two groups, one group receiving the cyclic RGD-peptide inhibitor of αvβ3/αvβ5 integrins (cilengitide, EMD 121974^14, 17, 29; Merck, Darmstadt, Germany) intraperitoneally five times per week in isotonic saline (75 mg/kg; n=12 rats) and the other, sham-treated group, serving as a control (n=12 rats). The observation period of all animals is 55 days and no rat in the study dies ahead of schedule.
After the inoculation of cancer cells each rat is imaged at days 30, 35, 45 and 55 using (i) a flat-panel equipped volumetric computed tomograph (Volume CT, Siemens, Germany) and (ii) a 1.5T clinical magnetic resonance scanner (Symphony, Siemens, Erlangen, Germany) equipped with a home-built receive-transmit coil (cylindrical volume resonator with an inner diameter of 83 mm and a usable length of 120 mm). Prior to in vivo imaging with VCT and MRI, rats aree anesthetized with nitrous oxide, oxygen and isoflurane as described above.
VCT imaging is obtained using the following parameters: tube voltage 80 kV, tube current 50 mA, scan time 51 s, rotation speed 10 s, frames per second 120, matrix 512×512, and slice thickness 0.2 mm. Image reconstructions are performed using a modified FDK (Feldkamp Davis Kress) cone beam reconstruction algorithm (kernel H80a; Afra, Erlangen, Germany).
(§1) T2-weighted imaging is performed using a turbo spin echo sequence (orientation axial, TR 3240 ms, TE 81 ms, matrix 152×256, FOV 90×53.4 mm^2, slice thickness 1.5 mm, 3 averages, scan time 3 min 40 s). For dynamic contrast-enhanced MRI, a saturation recovery turbo flash sequence through the largest diameter of the tumor (orientation axial, TR 373 ms, TE 1.86 ms, matrix 192×144, FOV 130×97.5 mm, slice thickness 5 mm, measurements 512, averages 1, scan time 6 min 55 s) is used. After 20 s baseline, 0.1 mmol/kg Gd-DTPA (Magnevist; Bayer Schering Pharma, Berlin, Germany) is intravenously infused for a time period of 10 s.
Unenhanced VCT images and MRI-acquired T2-weighted images are analyzed using the Medical Imaging Interaction Toolkit (MITK, Heidelberg, Germany) to determine volumes of osteolytic lesions and soft tissue components, respectively. […]

[2] = system: MDA-MB-231 breast cancer bone metastases; experiment: DCE-MRI of experimental breast cancer bone metastases (amplitude A, exchange rate constant kep); type: in vivo, nude rats (RNU strain); details: cilengitide 75 mg/kg
Procedure: as §1
Unenhanced VCT images and MRI-acquired T2-weighted images are analyzed using the Medical Imaging Interaction Toolkit (MITK, Heidelberg, Germany) to determine volumes of osteolytic lesions and soft tissue components, respectively. DCE-MRI acquired data is analyzed using the Dynalab workstation (Mevis Research, Bremen, Germany) according to the two-compartment model of Brix to determine the parameters amplitude A and exchange rate constant kep, as described.^23, 30 Briefly, the injected contrast media is distributed in both compartments (intravascular space and extravascular, interstitial space). The accumulation of contrast agent in these compartments over time is characterized by the amplitude A (associated with blood volume), whereas the exchange of contrast agent between the intravascular space and the interstitial space is characterized by the exchange rate constant kep (associated with vessel permeability). For determination of the respective values of the amplitude A and kep of bone metastases in our study, a region of interest is placed around the soft tissue component on color maps for A and kep, respectively, using the Dynalab workstation (Mevis Research, Bremen, Germany).
For each animal, volumes of the osteolysis and soft tissue component, amplitude A and exchange rate constant kep are plotted versus time after tumor cell inoculation (due to technical reasons one animal of the control group can not be evaluated for the amplitude A and kep). Normalization of the data to the corresponding initial value at day 30 for each animal is performed and changes are expressed in percent. For statistical comparisons of data from non-invasive imaging and histological analysis, the respective values are compared between the control and treatment groups using the two-sided Wilcoxon-Test; p-values <0.05 are considered significant.

[3] = system: MDA-MB-231 breast cancer bone metastases; experiment: Histology / immunofluorescence of experimental breast cancer bone metastases; type: in vivo, nude rats (RNU strain); details: after 4 weeks treatment with cilengitide; control rats 8.8 μm; p<0.01
Procedure: At the end of the observation period lower limbs of each animal are amputated and muscular tissue removed. Bones with surrounding soft tissue tumors are stored in 70% ethanol and embedded in a methylmethacrylat-based compound (Technovit® 9100 NEU, Heraeus Kulzer, Hanau, Germany) according to the instructions of the manufacturer. 5 μm-thick sections are cut (Microm HM340e microtome; Thermo Scientific, Waltham, Mass.), mounted on SuperFrost Plus microscope slides and dried overnight at 60° C. Additional freshly removed soft tissue tumors are embedded in optimum cutting temperature compound (OCT, TissueTec, Sakura, Japan) and stored at −80° C. […] Mean positive area fractions of SMA and collagen IV (in percent) as well as mean vessel diameters (in μm) are determined from 4 representative animals of each group analyzing 10 fields of view chosen randomly from each rat using Analysis Software (cell^F; Olympus Soft Imaging Solutions, Münster, Germany). […]
For light microscopical analysis, sections are stained with Mayer's hematoxylin (Carl Roth, Karlsruhe, Germany) and eosin (Merck, Darmstadt, Germany), mounted using Eukitt mounting medium (O. Kindler, Freiburg, Germany) and analyzed using a microscope (DM LB; Leica, Wetzlar, Germany) equipped with a digital camera (DFC 320; Leica, Wetzlar, Germany). […]

[4] = system: U251 human glioblastoma cells; experiment: Rat orthotopic glioblastoma model, radiotherapy and cilengitide scheduling, survival; type: in vivo, NIH rnu nude rats; details: t-4 and t-8 h groups, cilengitide 4 mg/kg + 25 Gy
Procedure: NIH rnu nude rats are anaesthetized, restrained, and injected intracerebrally 1 mm retro orbitally, 3 mm to the right of the bregma and at a depth of 2.5 mm with 5×10E5 U251 human glioblastoma cells suspended in 10 ul of culture medium, using a #2701 Hamilton syringe fitted with a 26 gauge needle, essentially as previously described (Engebraaten et al., 1999). After 14 days, cilengitide (4 mg/kg) is given as an intraperitoneal bolus in PBS, at various time (8 h, 4 h, 2 h, 1 h) prior to a single treatment with single, collimated, dorsal-ventral beam of 6 MV x-rays, so that 95-100% of the central axis dose of 25 Gy hit the tumor volume (Kim et al., 1999). Each of the 7 subsequent days the animals also received an identical i.p. bolus of cilengitide. The animals are maintained under ad libitum food and drink until they become moribund, or are sampled for tissue analysis (in the t-4 and t-8 h groups, where the animals are healthy past 230 days post tumor injection). A Kaplan-Meier survival curve is calculated and plotted (FIG. 7) from the raw data (Table 2). All animals in the RT monotherapy group died by 120 d.

[5] = system: Patients With Newly Diagnosed Glioblastoma (GBM); experiment: Phase I/IIa trial of Cilengitide and temozolomide with concomitant radiotherapy; type: in vivo, human
Procedure: Purpose: To evaluate safety, toxicity, and efficacy of the combination of the cyclic RGD pentapeptide Cilengitide (=cyclo-(Arg-Gly-Asp-DPhe-NMe-Val)), an inhibitor of integrins αvβ3 and αvβ5, in addition to standard temozolomide (TMZ) and radiotherapy (RT).
Patients and methods: Fifty-two pts (PS 0-1: 92%, 2: 8%; median age 57 yrs) after biopsy (n=9/17%) or tumor resection (n=43/83%) were treated with standard TMZ/RT (Stupp et al. NEJM 2005). In addition Cilengitide (500 mg i.v., 2×/week) was started one week before TMZ/RT and given throughout for the duration of chemotherapy or until progression. Primary endpoint was progression free survival rate at 6 months (target: 65%). Patients were followed with MRI every 2 months. Histopathologic diagnosis and MRI imaging were independently reviewed, MGMT promotor methylation status was assessed in 45 (86.5%) pts.

[6] = system: MDA-MB468 human breast tumour cells; experiment: Study 007: MDA-MB-468 orthotopic primary tumor growth; type: in vivo, female BALB/c nu/nu mice; details: all three dosing groups (75, 150 or 300 mg/kg), daily s.c.; Vehicle Control higher than 350 mm^3
Procedure: MDA-MB468 human breast tumour cells were orthotopically inoculated into the third mammary fat pad of female BALB/c nu/nu mice. The mice were randomised into groups when the tumors reached a size of approximately 40 mm^3.
The mice in each group received treatment with either Vehicle Control (Placebo) or EMD 121974 (75, 150 or 300 mg/kg) by daily subcutaneous injection. Body weight and tumour volume measurements were made for all mice three times per week.

[7] = system: HER2-positive advanced BRCA; details: in combination with capecitabine, 2nd line; cited from earlier work
[8] = Cilengitide 500 mg i.v. 2x/week with TMZ/RT, of 52 patients

grade 3 constitutional symptoms (asthenia, fatigue, anorexia) [5, 8]: 3 n
grade 3 deep venous thrombosis and pulmonary embolism [5, 8]: 1 n
grade 3 elevated liver function tests [5, 8]: 1 n
SMILES: CC(C)[C@H]1C(=O)N[C@@H](CCCN=C(N)N)C(=O)NCC(=O)N[C@@H](CC(=O)O)C(=O)N[C@H](Cc2ccccc2)C(=O)N1C [Cilengitide, cyclo-(Arg-Gly-Asp-DPhe-NMeVal)]
mean relative volume of soft tissue components (STC), increase compared to initial value at day 30 ([1]; day 35): 2.2 fold
mean relative volume of osteolytic lesions (OL), increase compared to initial value at day 30 ([1]; day 35, VCT): 1.5 fold
mean relative volume of soft tissue components (STC), increase compared to initial value at day 30 ([1]; day 45, p<0.05 vs control): 4.9 fold
mean relative volume of osteolytic lesions (OL), increase compared to initial value at day 30 ([1]; day 45, VCT, p<0.05 vs control): 2.4 fold
mean relative volume of soft tissue components (STC), increase compared to initial value at day 30 ([1]; day 55, p<0.01 vs control): 6.3 fold
mean relative volume of osteolytic lesions (OL), increase compared to initial value at day 30 ([1]; day 55, VCT, p<0.01 vs control): 3.5 fold
rats showing new bone formation in the osteolytic lesion ([1]; treatment group (three of 12 rats), cilengitide 75 mg/kg, VCT, not seen in controls): 25%
DCE-MRI amplitude A (associated with blood volume), mean relative value ([2]; day 35, p>0.05 vs control): 97 % of initial value
DCE-MRI exchange rate constant kep (associated with vessel permeability), mean relative value ([2]; day 35, p>0.05 vs control): 69 % of initial value
DCE-MRI amplitude A (associated with blood volume), mean relative value ([2]; day 45, p<0.05 vs control): 102 % of initial value
DCE-MRI exchange rate constant kep (associated with vessel permeability), mean relative value ([2]; day 45, p>0.05 vs control): 88 % of initial value
DCE-MRI amplitude A (associated with blood volume), mean relative value ([2]; day 55, p<0.05 vs control): 93 % of initial value
DCE-MRI exchange rate constant kep (associated with vessel permeability), mean relative value ([2]; day 55, p<0.05 vs control): 72 % of initial value
mean vessel diameter in bone metastases [3]: 6.6 μm
time animals are healthy post tumor injection [4]: > 230 days
treatment related non-hematologic grade 3 toxicities ([5]; Cilengitide 500 mg i.v. 2x/week with TMZ/RT, 3/52 patients): 5.7%
tolerability of the combination ([5]; Cilengitide and TMZ/RT): well tolerated
tumour volume on day 60 [6]: below 200 mm^3

SMILES: CS(=O)(=O)CCNCc1ccc(-c2ccc3ncnc(Nc4ccc(OCc5cccc(F)c5)c(Cl)c4)c3c2)o1 [Lapatinib]
improvement of median time to progression compared to capecitabine alone [7]: 4 months
